# Measurements: patent US7026111B2, “Methods and reagents for improved cell-based assays” (Beckman Coulter, Inc., priority 2001, dated 2006)
# Columns and labels:
# Caspase = test: One hour kinetic assay detection of Caspase using U-937 cells; format: cell-based; conditions: above the 50% DMSO concentration; due to non-specific signal from uninduced cell controls
# Description: (§1) To initiate such assays, 25 μl of Caspase CellProbe Reagent™ (Beckman Coulter) was added to a suspension of 1×10^5 U-937 cells in 110 μl of culture medium in a 96-well microtiter plate. Cells were incubated for one hour, and had been either uninduced or induced by prior incubation in the presence of 2.5 μM Camptothecin. The final concentration of the Caspase CellProbe Reagent™ was 30 μM.
# The results shown in FIG. 4 is of kinetic signal from twenty fluorescence readings of the one hour assay. In FIG. 4, lines containing a diamond (♦) denote unmixed samples; lines containing boxes (▪) and appearing as thick lines denote mixed samples.
# HeLa cells [1] = test: CellProbe assay in HeLa cells with betaine (Example 4); format: cell-based; conditions: HeLa 1.5×10^4/well, 30 μM CellProbe substrate; particularly if unmixed
# Description: For such experiments, HeLa cells are seeded overnight at 1.5×10^4/well and provided with 30 μM CellProbe substrate (final concentration).
# HeLa cells [2] = test: CellProbe assay in HeLa cells with betaine (Example 5); format: cell-based; conditions: betaine 2.0-2.4 M; HeLa 7.5×10^3/well, 25 μM CellProbe substrate; particularly if unmixed
# Description: The enhanced detection sensitivity of the assays of the present invention resulting from the use of Betaine (at 2.0, 2.1, 2.2, 2.3, 2.4 M) is shown in FIG. 8. For such experiments, HeLa cells are seeded overnight at 7.5×10^3/well and provided with CellProbe substrate (25 μM final concentration). […] Results of similar assays conducted with 35% DMSO are shown for comparison.
# aminopeptidase = conditions: concentrations of approximately 10 mM; cited from earlier work
# Caspase 6 [3] = test: Caspase 6 CellProbe assay in HeLa cells (Example 6); format: cell-based; conditions: HeLa 1.5×10^4 cells/well, 30 μM CellProbe, 1 hour
# Description: To initiate such assays, Caspase CellProbe Reagent™ (Beckman Coulter) is added to a suspension of 1.5×10^4 HeLa cells/well in a 96-well microtiter plate. The final concentration of the Caspase CellProbe Reagent™ was 30 μM. Reaction is for 1 hour and is as described in Example 1.
# Caspase 6 [4] = test: Caspase 6 CellProbe assay for apoptosis using HeLa cells (Example 2); format: cell-based
# Description: To initiate 110 such assays, Caspase CellProbe Reagent™ (Beckman Coulter) is added to a suspension of 1.5×10^4 HeLa cells/well in a 96-well microtiter plate. The final concentration of the Caspase CellProbe Reagent™ was 30 μM. Reaction is for 1 hour.
# In FIG. 5, and in the examples below, the Fluorescence Ratio is defined as: Fluorescence Ratio=Induced Fluorescence/Uninduced Fluorescence where the Induced Fluorescence is the difference between the 1 Hour Value and the Start of Assay Value, and the Uninduced Fluorescence is the difference between the 1 Hour Value and the Uninduced Start Value. In FIG. 5, data are plotted as a function of potassium glutamate or DMSO concentration. The dark columns indicate results obtained upon mixing the samples, while the light columns indicate results obtained when the samples were not mixed after the addition of glutamate.
# Caspase 6 [5] = test: Caspase 6 CellProbe assay with U-937 suspension cells; format: cell-based
# Description: as §1
# (§2) In the Figures, the 5 series of columns reflect results obtained with no glycerol, 20% glycerol, 30% glycerol, 40% glycerol and 50% glycerol. The individual columns (left to right) within each data series reflect results for: unmixed sample—induced; unmixed sample—uninduced; mixed sample—induced; and mixed sample—uninduced.
# Caspase 1 = Caspase 1 CellProbe assay with U-937 suspension cells; format: cell-based
# Description: as §1, §2
# Caspase 3 = Caspase 3 CellProbe assay with U-937 suspension cells; format: cell-based
# Description: as §1, §2
# [6] = various optimal glycerol concentrations (20-50%), U-937 cells, 30 μM CellProbe, 1 hour
smiles,measurement,setting,value
"C[S+](C)[O-] [DMSO, dimethyl sulfoxide]",signal ratio (induced/uninduced),Caspase,signal ratio decrease
C[N+](C)(C)CC(=O)O [betaine],assay sensitivity,HeLa cells [1],improved assay sensitivity
same,assay sensitivity,HeLa cells [2],improved assay sensitivity
[Ca+2].[Cl-].[Cl-] [calcium chloride],effect on enzyme reaction with the assay compound,aminopeptidase,inhibitory
OCCO [ethylene glycol],assay performance (detection sensitivity),Caspase 6 [3],improved assay performance
"N[C@@H](CCC(=O)[O-])C(=O)[O-].[K+].[K+] [glutamate, potassium glutamate]",detection of Caspase 6 activity,"Caspase 6 [4]; glutamate 1.5 M, 1.7 M, 1.8 M, 2.0 M, HeLa cells, 1 hour",dramatic improvement
same,assay sensitivity,"Caspase 6 [4]; inclusion of glutamate, particularly if unmixed",improved assay sensitivity
CCOC(=O)CC[C@H](N)C(=O)OCC [glutamic acid diethyl ester],detection sensitivity,Caspase 6 [3],did not enhance detection sensitivity
OCC(O)CO [glycerol],effect on Caspase 6 assay,Caspase 6 [5]; added unmixed glycerol ~50%,deleterious effect
same,detection of Caspase 6 activity,Caspase 6 [5]; [6],dramatic improvement
same,effect on Caspase 1 assay,Caspase 1; added unmixed glycerol ~40%,deleterious effect
same,detection of Caspase 1 activity,Caspase 1; [6],dramatic improvement
same,"relative signal, Caspase 3","Caspase 3; raising the glycerol concentration from 0 to 50%, greater magnitude when unmixed",significant relative signal increase
same,detection of Caspase 3 activity,Caspase 3; [6],dramatic improvement
O=C(O)[C@@H]1CCCN1 [proline],detection sensitivity,Caspase 6 [3],did not enhance detection sensitivity
O=C[C@H](O)[C@H](O)[C@H](O)CO [ribose],assay performance (detection sensitivity),Caspase 6 [3],improved assay performance
OC[C@@H](O)[C@H](O)CO [threitol],assay performance (detection sensitivity),Caspase 6 [3],improved assay performance
OC[C@H]1O[C@H](O[C@H]2O[C@H](CO)[C@@H](O)[C@H](O)[C@H]2O)[C@H](O)[C@@H](O)[C@@H]1O [trehalose],assay performance (detection sensitivity),Caspase 6 [3],improved assay performance
C[N+](C)(C)[O-] [trimethylamine N-oxide],assay performance (detection sensitivity),Caspase 6 [3],improved assay performance
